Data as given in ChEMBL document CHEMBL1201862, “PubChem BioAssay data set” (2004).
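Compound exposure: 48 hours, 5 concentrations, 96-well plates. Abbreviation: GI50, concentration required for 50% inhibition of growth.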 The source made the active and inactive calls. No stated cut-off is given here; in the data, active = GI50 up to about 1.1 µM and inactive = higher.

Key:
Test in all cases: NCI-60 cell line screen, 48 h
UACC-257 = test system: UACC-257
SK-MEL-2 = test system: SK-MEL-2
SR = test system: SR
HT-29 = test system: HT-29
MCF7 = test system: MCF7
OVCAR-5 = test system: OVCAR-5
MDA-N = test system: MDA-N
MDA-MB-231 = test system: MDA-MB-231
LOX IMVI = test system: LOX IMVI
ACHN = test system: ACHN
A498 = test system: A498
HOP-92 = test system: HOP-92
NCI-H522 = test system: NCI-H522
SNB-75 = test system: SNB-75
IGROV-1 = test system: IGROV-1
MOLT-4 = test system: MOLT-4
NCI-H23 = test system: NCI-H23
SN12C = test system: SN12C
SNB-19 = test system: SNB-19
SK-MEL-5 = test system: SK-MEL-5
DU-145 = test system: DU-145
T47D = test system: T47D
NCI/ADR-RES = test system: NCI/ADR-RES
OVCAR-8 = test system: OVCAR-8
SF-295 = test system: SF-295
SW-620 = test system: SW-620
OVCAR-3 = test system: OVCAR-3
EKVX = test system: EKVX
SF-268 = test system: SF-268
786-0 = test system: 786-0
Malme-3M = test system: Malme-3M
CAKI-1 = test system: CAKI-1
Hs-578T = test system: Hs-578T
KM12 = test system: KM12
SF-539 = test system: SF-539
CCRF-CEM = test system: CCRF-CEM
NCI-H460 = test system: NCI-H460
A549 = test system: A549
SK-OV-3 = test system: SK-OV-3
HCC 2998 = test system: HCC 2998
BT-549 = test system: BT-549
M14 = test system: M14
NCI-H226 = test system: NCI-H226
RPMI-8226 = test system: RPMI-8226
HOP-62 = test system: HOP-62
U-251 = test system: U-251
TK-10 = test system: TK-10
OVCAR-4 = test system: OVCAR-4
MDA-MB-435 = test system: MDA-MB-435
COLO 205 = test system: COLO 205
PC-3 = test system: PC-3
HCT-116 = test system: HCT-116
SK-MEL-28 = test system: SK-MEL-28
HCT-15 = test system: HCT-15
UACC-62 = test system: UACC-62
UO-31 = test system: UO-31
K562 = test system: K562
HL-60 = test system: HL-60
RXF 393 = test system: RXF 393

## Cc1ccc(OCC2OC(n3cnc4nc(N)nc(Cl)c43)CC2Oc2ccc(C)cc2)cc1 (stereo not given)
UACC-257
  GI50: 34.1 µM (inactive)
SK-MEL-2
  GI50: 17.7 µM (inactive)
SR
  GI50: 6.71 µM (inactive)
HT-29
  GI50: 23.7 µM (inactive)
MCF7
  GI50: 15.1 µM (inactive)
OVCAR-5
  GI50: 18.3 µM (inactive)
MDA-N
  GI50: 11.9 µM (inactive)
MDA-MB-231
  GI50: 34.6 µM (inactive)
LOX IMVI
  GI50: 15.7 µM (inactive)
ACHN
  GI50: 15.2 µM (inactive)
A498
  GI50: 28.2 µM (inactive)
HOP-92
  GI50: 17.3 µM (inactive)
NCI-H522
  GI50: 15.7 µM (inactive)
SNB-75
  GI50: 11 µM (inactive)
IGROV-1
  GI50: 18.5 µM (inactive)
MOLT-4
  GI50: 4.51 µM (inactive)
NCI-H23
  GI50: 15.6 µM (inactive)
SN12C
  GI50: 15.8 µM (inactive)
SNB-19
  GI50: 11.8 µM (inactive)
SK-MEL-5
  GI50: 19.7 µM (inactive)
DU-145
  GI50: 18 µM (inactive)
T47D
  GI50: 14.9 µM (inactive)
NCI/ADR-RES
  GI50: 15.9 µM (inactive)
OVCAR-8
  GI50: 15.7 µM (inactive)
SF-295
  GI50: 27.6 µM (inactive)
SW-620
  GI50: 32.5 µM (inactive)
OVCAR-3
  GI50: 18.6 µM (inactive)
EKVX
  GI50: 24.5 µM (inactive)
SF-268
  GI50: 15.4 µM (inactive)
786-0
  GI50: 22.1 µM (inactive)
Malme-3M
  GI50: 24.3 µM (inactive)
CAKI-1
  GI50: 4.08 µM (inactive)
Hs-578T
  GI50: 15.4 µM (inactive)
KM12
  GI50: 21 µM (inactive)
SF-539
  GI50: 23.3 µM (inactive)
CCRF-CEM
  GI50: 45.1 µM (inactive)
NCI-H460
  GI50: 21.4 µM (inactive)
A549
  GI50: 21.3 µM (inactive)
SK-OV-3
  GI50: 33.9 µM (inactive)
HCC 2998
  GI50: 15.8 µM (inactive)
BT-549
  GI50: 22.5 µM (inactive)
M14
  GI50: 15.8 µM (inactive)
NCI-H226
  GI50: 18.1 µM (inactive)
RPMI-8226
  GI50: 7.98 µM (inactive)
HOP-62
  GI50: 22.3 µM (inactive)
U-251
  GI50: 29.6 µM (inactive)
TK-10
  GI50: 31.1 µM (inactive)
OVCAR-4
  GI50: 23.2 µM (inactive)
MDA-MB-435
  GI50: 27.9 µM (inactive)
COLO 205
  GI50: 16.8 µM (inactive)
PC-3
  GI50: 21.9 µM (inactive)
HCT-116
  GI50: 22 µM (inactive)
SK-MEL-28
  GI50: 36 µM (inactive)
HCT-15
  GI50: 14.9 µM
UACC-62
  GI50: 27.5 µM (inactive)

## Cc1cc(S(=O)(=O)Nc2nnc3ccccn23)c(S)cc1Cl
UACC-257
  GI50: > 100 µM (inactive)
SK-MEL-2
  GI50: 79.4 µM (inactive)
SR
  GI50: > 100 µM (inactive)
HT-29
  GI50: > 100 µM (inactive)
MCF7
  GI50: > 100 µM (inactive)
OVCAR-5
  GI50: > 100 µM (inactive)
MDA-N
  GI50: > 100 µM (inactive)
MDA-MB-231
  GI50: > 100 µM (inactive)
LOX IMVI
  GI50: > 100 µM (inactive)
ACHN
  GI50: > 100 µM (inactive)
A498
  GI50: 25 µM (inactive)
NCI-H522
  GI50: > 100 µM (inactive)
UO-31
  GI50: > 100 µM (inactive)
IGROV-1
  GI50: > 100 µM (inactive)
MOLT-4
  GI50: 71.6 µM (inactive)
K562
  GI50: > 100 µM (inactive)
NCI-H23
  GI50: > 100 µM (inactive)
SN12C
  GI50: > 100 µM (inactive)
SNB-19
  GI50: > 100 µM (inactive)
SK-MEL-5
  GI50: > 100 µM (inactive)
DU-145
  GI50: > 100 µM (inactive)
T47D
  GI50: > 100 µM (inactive)
NCI/ADR-RES
  GI50: > 100 µM (inactive)
OVCAR-8
  GI50: > 100 µM (inactive)
SF-295
  GI50: 25.9 µM (inactive)
SW-620
  GI50: > 100 µM (inactive)
OVCAR-3
  GI50: > 100 µM (inactive)
EKVX
  GI50: > 100 µM (inactive)
786-0
  GI50: > 100 µM (inactive)
Malme-3M
  GI50: > 100 µM (inactive)
Hs-578T
  GI50: > 100 µM (inactive)
KM12
  GI50: 38.1 µM (inactive)
SF-539
  GI50: > 100 µM (inactive)
HL-60
  GI50: > 100 µM (inactive)
CCRF-CEM
  GI50: > 10 µM (inactive)
NCI-H460
  GI50: 40.1 µM (inactive)
A549
  GI50: 37.2 µM (inactive)
HCC 2998
  GI50: > 100 µM (inactive)
BT-549
  GI50: > 100 µM (inactive)
M14
  GI50: > 100 µM (inactive)
RPMI-8226
  GI50: > 100 µM (inactive)
HOP-62
  GI50: 56.6 µM (inactive)
U-251
  GI50: 47.9 µM (inactive)
TK-10
  GI50: > 100 µM (inactive)
OVCAR-4
  GI50: > 100 µM (inactive)
MDA-MB-435
  GI50: > 100 µM (inactive)
COLO 205
  GI50: > 100 µM (inactive)
PC-3
  GI50: > 100 µM (inactive)
HCT-116
  GI50: > 100 µM (inactive)
SK-MEL-28
  GI50: > 100 µM (inactive)
HCT-15
  GI50: > 100 µM
UACC-62
  GI50: > 100 µM (inactive)

## CCO[C@@H]1CCC([S+]([O-])c2ccc(C)cc2)=CO1 (stereo not given in full)
UACC-257
  GI50: > 100 µM (inactive)
SK-MEL-2
  GI50: > 100 µM (inactive)
SR
  GI50: 60.7 µM (inactive)
HT-29
  GI50: > 100 µM (inactive)
MCF7
  GI50: > 100 µM (inactive)
OVCAR-5
  GI50: > 100 µM (inactive)
MDA-N
  GI50: > 100 µM (inactive)
MDA-MB-231
  GI50: > 100 µM (inactive)
LOX IMVI
  GI50: > 100 µM (inactive)
ACHN
  GI50: > 100 µM (inactive)
A498
  GI50: > 100 µM (inactive)
NCI-H522
  GI50: > 100 µM (inactive)
SNB-75
  GI50: > 100 µM (inactive)
UO-31
  GI50: > 100 µM (inactive)
IGROV-1
  GI50: > 100 µM (inactive)
MOLT-4
  GI50: 52.1 µM (inactive)
K562
  GI50: > 100 µM (inactive)
NCI-H23
  GI50: > 100 µM (inactive)
RXF 393
  GI50: > 100 µM (inactive)
SN12C
  GI50: > 100 µM (inactive)
SNB-19
  GI50: > 100 µM (inactive)
SK-MEL-5
  GI50: > 100 µM (inactive)
DU-145
  GI50: > 100 µM (inactive)
T47D
  GI50: > 100 µM (inactive)
NCI/ADR-RES
  GI50: > 100 µM (inactive)
OVCAR-8
  GI50: > 100 µM (inactive)
SF-295
  GI50: > 100 µM (inactive)
SW-620
  GI50: > 100 µM (inactive)
OVCAR-3
  GI50: > 100 µM (inactive)
EKVX
  GI50: > 100 µM (inactive)
SF-268
  GI50: > 100 µM (inactive)
786-0
  GI50: > 100 µM (inactive)
Malme-3M
  GI50: > 100 µM (inactive)
CAKI-1
  GI50: > 100 µM (inactive)
Hs-578T
  GI50: > 100 µM (inactive)
KM12
  GI50: 34.2 µM (inactive)
HL-60
  GI50: 69.7 µM (inactive)
NCI-H460
  GI50: > 100 µM (inactive)
HCC 2998
  GI50: > 100 µM (inactive)
BT-549
  GI50: > 100 µM (inactive)
NCI-H226
  GI50: > 100 µM (inactive)
RPMI-8226
  GI50: > 100 µM (inactive)
HOP-62
  GI50: > 100 µM (inactive)
U-251
  GI50: > 100 µM (inactive)
TK-10
  GI50: > 100 µM (inactive)
OVCAR-4
  GI50: > 100 µM (inactive)
MDA-MB-435
  GI50: > 100 µM (inactive)
COLO 205
  GI50: > 100 µM (inactive)
PC-3
  GI50: > 100 µM (inactive)
HCT-116
  GI50: > 100 µM (inactive)
SK-MEL-28
  GI50: > 100 µM (inactive)
HCT-15
  GI50: > 100 µM
UACC-62
  GI50: > 100 µM (inactive)
